The source of these data is PubChem BioAssay (NCI).

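Five concentrations, 48 hours, 96-well plates. GI50 is the concentration that inhibits growth by half. At the TGI there is no net growth.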

Test systems include HOP-62 NSCLC; M14 melanoma; NCI-H23 lung; OVCAR-3 ovarian; OVCAR-8 ovarian; SF-295 CNS; SK-MEL-5 melanoma; SK-OV-3 ovarian; SW-620 colon; SR leukemia.
What all share (experiment): inhibition of tumour cell growth, NCI panel, 48 h

`CCn1c(SCc2ccc(C)cc2)nnc1-c1nn(-c2ccc(Cl)cc2Cl)c(-c2ccc(Cl)cc2)c1C`: the GI50 is 2730 nM in the experiment with HOP-62 NSCLC; 1.99 µM in the experiment with M14 melanoma; 2.24 µM in the experiment with NCI-H23 lung; 1.98 µM in the experiment with OVCAR-3 ovarian; 2.12 µM in the experiment with OVCAR-8 ovarian; 2.4 µM in the experiment on SF-295 CNS. In addition, the GI50 was 1.4 µM in the experiment with SK-MEL-5 melanoma, 2.58 µM in the experiment with SK-OV-3 ovarian and 2.56 µM in the experiment on SW-620 colon. The TGI in the experiment on HOP-62 NSCLC stood at 11.9 µM; in the experiment with M14 melanoma, 10.8 µM; in the experiment with NCI-H23 lung, 12.5 µM; with OVCAR-3 ovarian, 11.6 µM; in the experiment on OVCAR-8 ovarian, 10.7 µM; with SF-295 CNS it was 11.7 µM. The TGI in the experiment on SK-MEL-5 melanoma was found to be 2.74 µM; in the experiment with SK-OV-3 ovarian it was 8.18 µM; in the experiment with SW-620 colon, 12.6 µM.
For the compound `O=C1CCC(O)=C1N=Nc1ccccc1`, the TGI with HOP-62 NSCLC, with M14 melanoma, in the experiment with NCI-H23 lung, in the experiment with OVCAR-3 ovarian, in the experiment with OVCAR-8 ovarian and with SF-295 CNS was greater than 100 µM in each case. Further, the TGI in the experiment on SK-MEL-5 melanoma, in the experiment on SK-OV-3 ovarian and in the experiment with SW-620 colon was greater than 100 µM throughout.
For the compound `CN(C)c1cc[c]([Sn]([c]2ccc(N(C)C)cc2)([c]2ccc(N(C)C)cc2)[c]2ccc(N(C)C)cc2)cc1`, the GI50 with M14 melanoma is 9.18 µM; with NCI-H23 lung it was 5.88 µM; with OVCAR-3 ovarian, 3.38 µM; in the experiment on OVCAR-8 ovarian it was 9.57 µM; in the experiment with SF-295 CNS, 10.9 µM; with SK-MEL-5 melanoma it was 2.85 µM. Also, the values for the GI50 in the experiment on SK-OV-3 ovarian and in the experiment with SW-620 colon were 28 µM and 4.66 µM, respectively. For the same compound, the TGI in the experiment on M14 melanoma is 21.6 µM; with NCI-H23 lung, 32.3 µM; in the experiment with OVCAR-3 ovarian, 18.9 µM; in the experiment with OVCAR-8 ovarian, 56.3 µM; in the experiment on SF-295 CNS, 25.7 µM; in the experiment on SK-MEL-5 melanoma it was 14.2 µM. The TGI with SK-OV-3 ovarian is 49.5 µM; in the experiment on SW-620 colon, 20.5 µM.
On to `c1ccc(C2Nc3ccccc3C3OCCCC23)cc1` (stereo unspecified), for which the TGI in the experiment with NCI-H23 lung is greater than 100 µM; in the experiment with OVCAR-8 ovarian it was 44.3 µM; with SF-295 CNS it was 37.4 µM; with SK-MEL-5 melanoma, 31.5 µM; in the experiment on SW-620 colon it was greater than 100 µM.
As for `COc1ccc(CCN2COc3c([C@@H](C)CCC=C(C)C)ccc(C)c3C2)cc1OC`, the GI50 was 1860 nM with HOP-62 NSCLC; 1.69 µM in the experiment on M14 melanoma; 2.55 µM in the experiment on NCI-H23 lung; 3.55 µM with OVCAR-3 ovarian; 4.21 µM in the experiment on OVCAR-8 ovarian; 2.02 µM in the experiment with SF-295 CNS. The GI50 in the experiment on SK-MEL-5 melanoma was 1.64 µM; in the experiment with SK-OV-3 ovarian, 11.8 µM; in the experiment with SW-620 colon it was 1.91 µM. Also, the TGI in the experiment with HOP-62 NSCLC was determined as 3.62 µM; with M14 melanoma, 3.18 µM; in the experiment on NCI-H23 lung, 6.08 µM; in the experiment with OVCAR-3 ovarian, 14.1 µM; with OVCAR-8 ovarian, 20.2 µM; in the experiment on SF-295 CNS, 6.56 µM. The TGI was 3.04 µM with SK-MEL-5 melanoma, 31.1 µM with SK-OV-3 ovarian and 4.08 µM with SW-620 colon.
Regarding `CC1=C(C(=O)Nc2ccc(F)c(Cl)c2)C(c2cccc(O)c2)NC(=O)N1` (stereo unspecified), the GI50 is greater than 100000 nM with HOP-62 NSCLC; 71.4 µM with M14 melanoma; greater than 100 µM in the experiment with NCI-H23 lung; 71.8 µM with OVCAR-3 ovarian; 62.7 µM in the experiment on OVCAR-8 ovarian; greater than 100 µM in the experiment on SF-295 CNS. The values for the GI50 in the experiment with SK-MEL-5 melanoma, in the experiment with SK-OV-3 ovarian and in the experiment with SW-620 colon were 45.1 µM, greater than 100 µM and greater than 100 µM, respectively. Also, the TGI with HOP-62 NSCLC, in the experiment on M14 melanoma, in the experiment with NCI-H23 lung, in the experiment on OVCAR-3 ovarian, in the experiment with OVCAR-8 ovarian and in the experiment on SF-295 CNS was greater than 100 µM throughout. In addition, the TGI in the experiment with SK-MEL-5 melanoma, in the experiment on SK-OV-3 ovarian and in the experiment with SW-620 colon was greater than 100 µM throughout.
With `Cn1c2ccccc2c(=O)c2ccc(Cl)cc21`, the TGI in the experiment with HOP-62 NSCLC, in the experiment with NCI-H23 lung, in the experiment on OVCAR-3 ovarian, with OVCAR-8 ovarian, in the experiment on SF-295 CNS and with SK-MEL-5 melanoma was greater than 10 µM in each case. Further, the TGI in the experiment with SK-OV-3 ovarian, in the experiment on SR leukemia and in the experiment on SW-620 colon was greater than 10 µM each time.
For `CCSc1nc(SCC)c2cn[nH]c2n1`, the GI50 with HOP-62 NSCLC is 18600 nM; with M14 melanoma, greater than 100 µM; in the experiment with NCI-H23 lung, greater than 100 µM; in the experiment on OVCAR-3 ovarian, 38.8 µM; in the experiment on OVCAR-8 ovarian, 62.7 µM; in the experiment with SF-295 CNS it was greater than 100 µM. The GI50 with SK-MEL-5 melanoma is 18 µM; in the experiment with SK-OV-3 ovarian it was 39 µM; in the experiment on SW-620 colon, 39.5 µM. The TGI with HOP-62 NSCLC, in the experiment on M14 melanoma, with NCI-H23 lung, in the experiment on OVCAR-3 ovarian, in the experiment with OVCAR-8 ovarian and in the experiment on SF-295 CNS was greater than 100 µM in each case. Moreover, the figures for the TGI in the experiment on SK-MEL-5 melanoma, with SK-OV-3 ovarian and with SW-620 colon were 41.8 µM, greater than 100 µM and greater than 100 µM, respectively.
For the compound `O=C(c1ccccc1)C1OC12C(=O)Nc1ccccc12` (stereo unspecified), the TGI with HOP-62 NSCLC is greater than 100 µM; in the experiment with M14 melanoma, 63 µM; in the experiment on NCI-H23 lung, 89.4 µM; with OVCAR-3 ovarian it was 97 µM; in the experiment with OVCAR-8 ovarian, greater than 100 µM; in the experiment on SF-295 CNS, 81.8 µM. Further, the TGI in the experiment with SK-MEL-5 melanoma is 47.3 µM; in the experiment on SK-OV-3 ovarian it was greater than 100 µM; in the experiment on SW-620 colon, 62.6 µM.
With `C1C[OH+]CC[OH+]CC[OH+]CC[OH+]CC[OH+]1.[Cl-].[V]`, the GI50 in the experiment with M14 melanoma was 45.3 µM; with NCI-H23 lung, 76.9 µM; in the experiment with OVCAR-3 ovarian it was 58.2 µM; in the experiment on OVCAR-8 ovarian, greater than 100 µM; in the experiment on SF-295 CNS, 28.5 µM; in the experiment with SK-MEL-5 melanoma, 7.48 µM. Moreover, the figures for the GI50 in the experiment on SK-OV-3 ovarian and in the experiment on SW-620 colon were 67.8 µM and greater than 100 µM, respectively. For the same compound, the TGI is greater than 100 µM in the experiment on M14 melanoma; greater than 100 µM in the experiment on NCI-H23 lung; greater than 100 µM with OVCAR-3 ovarian; greater than 100 µM in the experiment with OVCAR-8 ovarian; greater than 100 µM in the experiment with SF-295 CNS; 26.6 µM in the experiment with SK-MEL-5 melanoma. The TGI with SK-OV-3 ovarian and in the experiment on SW-620 colon was greater than 100 µM each time.
